Patent publication US20220257552A1, “METHODS OF PRESCREENING AND TREATING BREAST CANCERS WITH SELECTIVE ANDROGEN RECEPTOR MODULATORS” (priority 2021, published 2022)

What was measured:
[1] = test system: breast cancer specimens obtained from patients; assay: Breast cancer patient specimens, ex vivo sponge culture; format: cell-based, human
Protocol: Specimens from breast cancer patients were collected with patient consent under a protocol approved by the UTHSC Institutional Review Board (IRB). Specimens were collected immediately after surgery in RPMI medium containing penicillin:streptomycin and Fungizone and transported to the laboratory on ice. The tissues were finely minced and treated with collagenase for 2 hours.
HCI-13 tumors grown in female mice were allowed to reach 500-1000 mm^3 before the animals were sacrificed and the tumors were excised to be used for sponge culture. Patient specimens frozen in liquid nitrogen in freezing medium were used for sponge culture. […] Tumors were sliced into small pieces (˜1 mm^3) and incubated on pre-soaked gelatin sponges (5 fragments/sponge) in 12 well plates containing 1.5 mL medium (MEM+10% FBS+2 mM L-glutamine+10 μg/mL insulin+10 μg/mL hydrocortisone+penicillin:streptomycin). The cultures were performed in triplicates for HCI-13 and singly for patient specimens. Pooled samples (n=5/sponge) from each sponge constituted one sample. Tissues were harvested after 3 days of treatment, RNA extracted, and expression of various genes measured. Although the same procedure was adopted for specimens obtained from breast cancer patients, the specimens were cultured singly (n=5/sponge=one sample) and not in triplicates as performed for HCI-13.
Like other cancers, breast cancer is also heterogeneous in its genomic profile as well as in its response to treatments. […] Three days after treatment, RNA was isolated from the tissues and expression of ER- and AR-target genes was measured.

AR = target: T1, AR (Homo sapiens, UniProt P10275); conditions: cited from earlier work
T1 sequence (P10275 1-920): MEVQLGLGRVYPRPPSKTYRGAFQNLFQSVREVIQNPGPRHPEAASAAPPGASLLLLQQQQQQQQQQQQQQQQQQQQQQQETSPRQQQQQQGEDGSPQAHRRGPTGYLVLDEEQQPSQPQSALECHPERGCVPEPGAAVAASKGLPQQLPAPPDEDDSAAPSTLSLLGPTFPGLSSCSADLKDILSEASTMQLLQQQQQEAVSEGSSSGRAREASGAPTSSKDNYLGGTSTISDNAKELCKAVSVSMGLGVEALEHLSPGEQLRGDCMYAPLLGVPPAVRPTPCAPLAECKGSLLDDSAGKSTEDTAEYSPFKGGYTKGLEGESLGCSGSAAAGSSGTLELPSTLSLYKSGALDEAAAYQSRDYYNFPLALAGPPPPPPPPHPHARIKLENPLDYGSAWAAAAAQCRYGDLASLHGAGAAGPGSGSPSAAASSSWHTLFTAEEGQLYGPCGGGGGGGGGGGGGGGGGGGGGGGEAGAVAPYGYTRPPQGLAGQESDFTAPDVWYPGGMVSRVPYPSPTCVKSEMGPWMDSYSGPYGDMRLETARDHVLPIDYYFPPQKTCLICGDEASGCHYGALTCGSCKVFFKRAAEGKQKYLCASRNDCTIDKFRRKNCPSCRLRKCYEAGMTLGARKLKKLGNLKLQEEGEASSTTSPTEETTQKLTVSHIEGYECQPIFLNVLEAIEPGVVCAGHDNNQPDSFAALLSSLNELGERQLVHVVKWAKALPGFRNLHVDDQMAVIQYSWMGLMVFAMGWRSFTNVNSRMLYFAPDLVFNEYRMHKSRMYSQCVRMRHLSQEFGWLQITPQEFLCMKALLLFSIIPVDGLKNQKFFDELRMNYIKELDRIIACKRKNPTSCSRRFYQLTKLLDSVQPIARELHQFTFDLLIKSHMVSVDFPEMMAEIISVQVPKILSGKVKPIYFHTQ

HCI-7 PDX = assay: HCI-7 (HCI-007) patient-derived xenograft in NSG mice; format: in vivo
Protocol: HCI-007 tumor pieces (1 mm^3) were implanted surgically (one per mouse) under the skin on the flanks of NSG mice. Simultaneously, 17β-estradiol pellet (Innovative Research of America) was implanted surgically under the skin of each mouse. Tumors were allowed to grow and reach approximately 100 mm^3 volume (1*W*W*0.526). […] Tumor volume was measured weekly and represented as % change in tumor volume (FIG. 32). Mice were sacrificed and tumors stored for further analysis.
(§1) All animal protocols were approved by The University of Tennessee Health Science Center (UTHSC) Institutional Animal Care and Use Research Committee. Xenograft experiments were performed as previously published (Narayanan et al. (2014) PLoS One 9, e103202). Briefly, 3 million MCF-7 cells were suspended in 0.05 ml MEM+10% FBS and 0.05 ml Matrigel/nude mouse and were injected subcutaneously. Once the tumor size reached 100-200 mm^3, the animals were randomized and treated orally with the indicated drugs formulated in DMSO:PEG-300 (15:85). HCI-7, HCI-9, and HCI-13 PDXs were gifts kindly donated by Dr. Alana Welm (Huntsman Cancer Institute, Salt Lake City, Utah). HCI PDX tumor fragments (1 mm^3) were surgically implanted under the mammary fat pad in female NOD SCID Gamma (NSG) mice. Tumor volume was measured twice weekly for MCF-7 xenograft and once or twice weekly for HCI PDXs. At the end of the study, animals were sacrificed and tumors were excised, weighed, and stored for various analyses.
From the several PDXs available, three AR-positive PDXs were identified, based on gene expression profile. […] The enzalutamide dose was selected based on previous published experiments (Park et al. (2016) Cancer Invest 34, 517-520; Pollock et al. (2016) Nat Chem Biol 12, 795-801) as well as from internal experiments conducted in prostate cancer xenografts and in Hershberger studies.

MCF-7-AR cells = assay: MCF-7-AR xenograft in ovariectomized, estradiol-supplemented mice; format: in vivo
Protocol: Once tumors reached 100-200 mm^3, the animals were randomized and treated with vehicle or 30 mg/kg per day of Formula VIII. Tumor volumes and body weights were measured thrice weekly. At the end of 5 weeks of treatment, the animals were sacrificed, tumors weighed and stored for RNA and protein isolation and histology. * significance at P<0.05.
as §1

ER-β = target: T2, ER-β (Rattus norvegicus, UniProt Q62986); assay: ER-β transactivation in HEK-293 cells; format: cell-based
T2 construct: expressed in transfected cells
Protocol: Rat GR, MR, PR, ER-α and ER-β were individually cloned into a pCR3.1 vector backbone. Sequencing was performed to verify the absence of any mutations. HEK-293 cells were plated at 90,000 cells per well of a 24 well plate in Dulbecco's Minimal Essential Media supplemented with 5% charcoal-stripped FBS. […] Luciferase assays were performed 48 h after transfection. Transcriptional activation values are represented as firefly luciferase normalized to renilla luciferase.

T2 sequence (Q62986 whole entry): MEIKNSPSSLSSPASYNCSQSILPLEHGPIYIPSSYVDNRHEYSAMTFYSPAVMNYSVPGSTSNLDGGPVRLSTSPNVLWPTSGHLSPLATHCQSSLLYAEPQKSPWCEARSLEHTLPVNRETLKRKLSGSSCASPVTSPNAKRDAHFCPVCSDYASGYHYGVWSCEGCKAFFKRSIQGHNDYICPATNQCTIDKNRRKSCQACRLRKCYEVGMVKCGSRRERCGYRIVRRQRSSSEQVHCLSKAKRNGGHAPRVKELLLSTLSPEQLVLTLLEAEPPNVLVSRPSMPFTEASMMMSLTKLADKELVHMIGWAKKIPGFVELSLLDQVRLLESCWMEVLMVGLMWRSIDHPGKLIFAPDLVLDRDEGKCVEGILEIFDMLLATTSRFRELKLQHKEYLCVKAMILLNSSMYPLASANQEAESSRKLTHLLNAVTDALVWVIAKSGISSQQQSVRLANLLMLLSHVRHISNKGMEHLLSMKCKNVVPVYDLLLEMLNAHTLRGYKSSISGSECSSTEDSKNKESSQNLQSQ

Compound	specimens in which AR agonist activity was observed ([1]; 1 μM)	specimens in which ER function was inhibited ([1]; 1 μM Formula IX, 100 nM fulvestrant, 3 days)	concentration at which it binds to and activates the AR (AR)	tumor growth (HCI-7 PDX; 10 mg/kg Formula IX, 30 mg/kg enzalutamide, orally)	tumor weights at end of study (HCI-7 PDX; 10 mg/kg orally)	tumor growth (% change in tumor volume) (HCI-7 PDX; Formula IX 10 mg/kg, enzalutamide 20 mg/kg, orally, vs vehicle)	growth inhibition of xenografts (MCF-7-AR cells; 30 mg/kg per day, 5 weeks)	uterus weight (MCF-7-AR cells; estrogen supplemented animals)	17β-estradiol-induced ER-β activity, antagonist mode (ER-β; co-incubation)	ERβ-mediated transactivation, agonist mode (ER-β; highest tested concentration 1 μM)
C[C@](O)(COc1ccc(C#N)cc1)C(=O)Nc1ccc(C#N)c(C(F)(F)F)c1 [Formula IX, (S)—N-(4-Cyano-3-(trifluoromethyl)phenyl)-3-(4-cyanophenoxy)-2-hydroxy-2-methylpropanamide]	4 of 8	3 of 8	less than 10 nM	inhibited significantly	significantly smaller	grew slowly	–	–	–	–
C[C@](O)(COc1ccc(C#N)cc1)C(=O)Nc1ccc(C#N)c(Cl)c1 [Formula VIII, (S)—N-(3-chloro-4-cyanophenyl)-3-(4-cyanophenoxy)-2-hydroxy-2-methylpropanamide]	–	–	–	–	–	–	greater than 50%	inhibited	failed to alter	failed to activate
